Data taken from PubChem BioAssay (NCI).
Several values for one entry are separate records, joined by “and”; a condition that tells them apart may be missing. Equal values may be shown once.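 Results reflect a 48-hour exposure of cells in 96-well plates to compound at five concentrations. GI50 = concentration required for 50% inhibition of growth. TGI is the concentration that stops growth completely.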

Tests used:
Assay in all cases: DTP human tumour cell line panel, 48 h
LOX IMVI melanoma = system: LOX IMVI melanoma
RXF 393 renal = system: RXF 393 renal
SNB-19 CNS = system: SNB-19 CNS
MOLT-4 leukemia = system: MOLT-4 leukemia
NCI-H226 lung = system: NCI-H226 lung
A498 renal = system: A498 renal
SN12C renal = system: SN12C renal
SNB-75 CNS = system: SNB-75 CNS
NCI-H23 lung = system: NCI-H23 lung
PC-3 prostate = system: PC-3 prostate

| SMILES | TGI (LOX IMVI melanoma) | TGI (RXF 393 renal) | TGI (SNB-19 CNS) | TGI (MOLT-4 leukemia) | TGI (NCI-H226 lung) | TGI (A498 renal) | TGI (SN12C renal) | TGI (SNB-75 CNS) | TGI (NCI-H23 lung) | GI50 (LOX IMVI melanoma) | GI50 (RXF 393 renal) | GI50 (SNB-19 CNS) | GI50 (MOLT-4 leukemia) | GI50 (NCI-H226 lung) | GI50 (SN12C renal) | GI50 (SNB-75 CNS) | GI50 (PC-3 prostate) | TGI (PC-3 prostate) | GI50 (NCI-H23 lung) | GI50 (A498 renal) |
| --- | --- | --- | --- | --- | --- | --- | --- | --- | --- | --- | --- | --- | --- | --- | --- | --- | --- | --- | --- | --- |
| CC(=O)Oc1ccccc1C(=O)C1c2cccc(O)c2C(=O)c2c(O)cccc21 | 4.19 µM | 1.46 µM | 24.3 µM | 6.01 µM | 3.7 µM | 7.1 µM | 12.1 µM | 4.54 µM | 4.33 µM |  |  |  |  |  |  |  |  |  |  |  |
| COC(=O)C(Cc1nc2ccc(Cl)cc2[nH]c1=O)C(=O)C(=O)Nc1ccccc1[N+](=O)[O-] (centres undefined) | > 100 µM | > 100 µM | > 100 µM | > 100 µM | > 100 µM | > 100 µM | > 100 µM | > 100 µM | > 100 µM |  |  |  |  |  |  |  |  |  |  |  |
| S=c1ssc(Sc2ccccn2)c1Cl | 17 µM | 32.6 µM | 41 µM | 5.84 µM | 58.8 µM |  | 25.9 µM | 56.8 µM | 62.9 µM | 5.09 µM | 16.9 µM | 17 µM | 2.53 µM | 23 µM | 13.2 µM | 23.3 µM | 11.9 µM | 24.2 µM | 17.2 µM |  |
| N#Cc1ccccc1NC(=O)c1ccccc1 | > 100 µM | > 100 µM | > 100 µM |  |  | > 100 µM | > 100 µM | > 100 µM | > 100 µM |  |  |  |  |  |  |  |  |  |  |  |
| CN(C)c1ccc(C(N)=O)cn1 | > 100 µM | > 100 µM | > 100 µM | > 100 µM |  |  | > 100 µM | > 100 µM | > 100 µM |  |  |  |  |  |  |  |  | > 100 µM |  |  |
| O=C(Cc1ccccc1)N/N=C(\C1=Nc2ccc([N+](=O)[O-])cc2NC1O)C(O)c1ccc([N+](=O)[O-])cc1 (centres undefined) | > 100 µM | > 100 µM | > 100 µM |  | > 100 µM | > 100 µM | > 100 µM | > 100 µM | > 100 µM |  |  |  |  |  |  |  |  |  |  |  |
| CCCCCc1c(C)[nH]c(/C=C2\N=C(c3ccc[nH]3)C=C2Oc2ccc(Cl)cc2)c1C | 0.046 µM and 0.0473 µM | 0.672 µM and 0.722 µM | 4.33 µM | 1.88 µM |  | 3.33 µM and 0.609 µM | 1.92 µM | 0.553 µM and 0.431 µM | 3.25 µM and 2.62 µM | 0.0204 µM and < 0.01 µM | 0.0678 µM and 0.123 µM | 0.268 µM and 0.173 µM | 0.064 µM |  | 0.112 µM and 0.0549 µM | 0.112 µM and 0.0375 µM | 0.115 µM and 0.0236 µM | 7.22 µM | 0.16 µM and 0.0739 µM | 0.134 µM and 0.033 µM |
| CCOc1ccc(NC(=O)CC2SC(N)=NC2=O)cc1 (centres undefined) | > 100 µM | > 100 µM | > 100 µM | > 100 µM | > 100 µM |  | > 100 µM | > 100 µM | > 100 µM |  |  |  |  |  |  |  |  |  |  |  |
| C/C=C(/CCCCNCCCC)[Si](C)(C)C | 28.3 µM | 21 µM | 31.8 µM | 31.2 µM |  | 29.4 µM | 30.5 µM | 27 µM | 31.9 µM |  |  |  |  |  |  |  |  |  |  |  |
| N/N=C(\Cc1ccccc1)NN=C(N)N | > 100 µM |  |  | > 100 µM | > 100 µM | > 100 µM | > 100 µM | > 100 µM | > 100 µM |  |  |  |  |  |  |  |  |  |  |  |
| CN(C)C(=O)C1CCC(=C2C(=O)OC(C)(C)OC2=O)N1C (centres undefined) | > 100 µM | > 100 µM | > 100 µM | > 100 µM | > 100 µM | > 100 µM | > 100 µM | > 100 µM | > 100 µM |  |  |  |  |  |  |  |  |  |  |  |
| C=C(N=[N+]=[N-])c1cn(C2CC(O)C(CO)O2)c(=O)[nH]c1=O (centres undefined) | > 100 µM | > 100 µM | > 100 µM | > 100 µM | > 100 µM |  | > 100 µM | > 100 µM | > 100 µM |  |  |  |  |  |  |  |  |  |  |  |
| O=c1cccccc1NCCCCCCCCCNc1cccccc1=O | 19.1 µM | 79.3 µM | 88.5 µM | 24.9 µM | 43.4 µM |  | 62.2 µM | 62.9 µM | 74.6 µM |  |  |  |  |  |  |  |  |  |  |  |
| O=C(Nc1cc(Cl)c(Cl)cc1Cl)C(=O)C(C(=O)c1ccc(Cl)c(Cl)c1)C1OC(=O)c2ccccc21 (centres undefined) | 35 µM | 21.9 µM | 49.8 µM | > 100 µM | 22.7 µM | 41.9 µM | 52.3 µM |  |  |  |  |  |  |  |  |  |  |  |  |  |
| CCCCCCCCCCCCC(=O)[O-].CCCCCCCCCCCCC(=O)[O-].CCCCCCCCCCCCC(=O)[O-].CCCCCCCCCCCCC(=O)[O-].[Mo+2].[Mo+2] | 25.2 µM | 26.1 µM | > 100 µM | 22.5 µM | 46.8 µM |  |  |  | 40.6 µM | 12.1 µM | 12 µM | 26.5 µM | 3.57 µM | 12.4 µM |  |  |  |  | 17.9 µM |  |
| C/C1=C\CC[C@@](C)(O)[C@@H]2CC3[C@@H](OC(=O)C34CC4)[C@@H](O2)[C@H](C)CCC1 (some centres undefined) | 25.8 µM |  | > 100 µM | > 100 µM |  |  | 43.5 µM | > 100 µM |  | 6.09 µM |  | 58.6 µM | 39.2 µM |  | 20.3 µM | 41.9 µM | 20.1 µM | 44.6 µM |  |  |
| CC(=O)NC(CCCN(Cc1ccccc1)C(=O)N(CCCl)N=O)C(=O)NCc1ccccc1 (centres undefined) | > 57.1 µM | 68.9 µM | > 100 µM | 97.5 µM | > 94.2 µM | > 72 µM | > 100 µM | 63.9 µM | > 75.1 µM |  |  |  |  |  |  |  |  |  |  |  |
| O=C(O)c1c[nH]cc1C(=O)O | > 100 µM | > 100 µM | > 100 µM | > 100 µM | > 100 µM | > 100 µM | > 100 µM | > 100 µM | > 100 µM |  |  |  |  |  |  |  |  |  |  |  |
| Cc1c2ccncc2c(C)c2c1[nH]c1ccc(OC(C)(C)C)cc12 | 7.53 µM |  | 7.53 µM | 4.66 µM | 14.8 µM | 26.2 µM |  | 3.73 µM | 24.9 µM |  |  |  |  |  |  |  |  |  |  |  |
| COc1cc(Oc2c(O)c(C)c(OC)c(C(C)=O)c2O)c(C(C)=O)c(O)c1C | > 100 µM | > 100 µM | > 100 µM |  | > 100 µM |  | > 100 µM | > 100 µM | 94.9 µM |  |  |  |  |  |  |  |  |  |  |  |
| Cc1cn2c(/C=N/N/C(N)=N\N)c(-c3ccc(Cl)c([N+](=O)[O-])c3)nc2s1 |  |  | 18.6 µM |  |  | 21.5 µM | 4.09 µM |  | 20 µM |  |  | 2.05 µM |  |  | 1.27 µM |  | 9.95 µM | 24.8 µM | 4.18 µM | 7.58 µM |
| CC1=NN(C(=O)c2ccc(Cl)cc2)C(=O)/C1=C/c1cccc([N+](=O)[O-])c1 | > 100 µM | > 100 µM | > 100 µM |  |  | > 100 µM | > 100 µM |  | > 100 µM |  |  |  |  |  |  |  |  |  |  |  |
